Starred links: 1 amine or outer side, 2 acyl side, 3 side chain; linkers in the order of their positions; H or OH if unused. Non-standard residues stand in square brackets, D forms with d. Residues, ends and D or L forms follow the SMILES beside them. Trp(4-Cl)(βS-Me) = C[C@@H](c1c[nH]c2cccc(Cl)c12)[C@H](N)C(=O)O; dPro(4R-(4-pyridylmethyl)) = O=C(O)[C@H]1C[C@@H](Cc2ccncc2)CN1; Ala(piperidin-4-yl) = O=C([C@H](CC1CCN([*:3])CC1)N[*:1])[*:2]; Trp(βS-Me,4-F) = C[C@@H](c1c[nH]c2cccc(F)c12)[C@H](N)C(=O)O; Bip(4'-COOH) = N[C@@H](Cc1ccc(-c2ccc(C(=O)O)cc2)cc1)C(=O)O; Ala(1-bicyclo(1.1.1)pentyl) = N[C@@H](CC12CC(C1)C2)C(=O)O; dPro(4R-Bzl(4-F)) = O=C(O)[C@H]1C[C@@H](Cc2ccc(F)cc2)CN1; Ala(morpholin-4-yl) = N[C@@H](CN1CCOCC1)C(=O)O; Ala(pyrimidin-5-yl) = N[C@@H](Cc1cncnc1)C(=O)O; Phe(4-COOH) = N[C@@H](Cc1ccc(C(=O)O)cc1)C(=O)O; X24 = NC(=O)c1ncc(C[C@H](N[*:1])C(=O)[*:2])cn1; Pro(cis-4-F) = O=C(O)[C@@H]1C[C@H](F)CN1; Ala(4-THP) = N[C@@H](CC1CCOCC1)C(=O)O; AEF = NCCOc1ccc(C[C@H](N)C(=O)O)cc1; cisHyp = O=C(O)[C@@H]1C[C@H](O)CN1; d(αMeD) = C[C@@](N)(CC(=O)O)C(=O)O; 4Pal = N[C@@H](Cc1ccncc1)C(=O)O; aThr = C[C@H](O)[C@H](N)C(=O)O; αMeD = C[C@](N)(CC(=O)O)C(=O)O; d(αMeS) = C[C@@](N)(CO)C(=O)O; αMeK = C[C@](N)(CCCCN)C(=O)O; Dab = NCC[C@H](N)C(=O)O; Dap = NC[C@H](N)C(=O)O; Aib = CC(C)(N)C(=O)O; Sar = CNCC(=O)O
The molecules below were run against T1, IL-1β (Homo sapiens, UniProt P01584) (assay: IL-6 assay in MRC5 cells: inhibition of IL-1β induced IL-6 secretion (AlphaLISA)). Conditions: inhibition of IL-1β induced IL-6 secretion in MRC5 cells; compound pre-incubated 1 hour with recombinant human IL-1β; read-out: MRC5 IC50.
T1 construct: purchased BioLegend 579404
T1 sequence (P01584 117-269): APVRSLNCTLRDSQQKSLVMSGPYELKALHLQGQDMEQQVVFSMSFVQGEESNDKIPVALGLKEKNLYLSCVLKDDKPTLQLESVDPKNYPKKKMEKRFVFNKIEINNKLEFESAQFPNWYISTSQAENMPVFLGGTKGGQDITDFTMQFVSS
Type: cell-based
Method in brief: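 Compound was pre-incubated 1 h at ambient temperature with recombinant human IL-1β at 2λ EC80 before adding human lung fibroblast MRC5 cells (3000/well) in EMEM with 0.025% BSA. After overnight culture at 37 °C, 5% CO2, secreted IL-6 in conditioned medium was measured by AlphaLISA; IC50 from 4-parameter logistic fits.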

IC50 [nM] | Compound
0.014 | C[C@@H](c1c[nH]c2cccc(F)c12)[C@@H]1NC(=O)[C@@H]2C[C@H](F)CN2C(=O)CNC(=O)[C@H](Cc2ccc(C(=O)O)cc2)NC(=O)[C@H](Cc2ccncc2)NC(=O)[C@H](Cc2ccc(-c3ccc(C(=O)O)cc3)cc2)NC(=O)[C@H]2C[C@@H](Cc3ccncc3)CN2C(=O)CNC(=O)[C@H](CCN)NC(=O)[C@H](CCC(N)=O)NC(=O)[C@H](Cc2cnc(C(N)=O)nc2)NC(=O)C(C)(C)NC(=O)[C@H](Cc2c[nH]c3ccccc23)NC(=O)[C@H](CO)NC(=O)C(C)(C)NC1=O [Example 267] (cyclo([Bip(4'-COOH)][4Pal][Phe(4-COOH)]G[Pro(cis-4-F)][Trp(βS-Me,4-F)][Aib]SW[Aib][X24]Q[Dab]G[dPro(4R-(4-pyridylmethyl))]))

Same assay, conditions: inhibition of IL-1β induced IL-6 secretion in MRC5 cells; read-out: MRC5 IC50

Compound | IC50 [nM]
CC(=O)NCCOc1ccc(C[C@@H]2NC(=O)[C@H]3C[C@@H](Cc4ccc(F)cc4)CN3C(=O)CNC(=O)[C@H](CCN)NC(=O)[C@H](CCC(N)=O)NC(=O)[C@H](Cc3ccncc3)NC(=O)C(C)(C)NC(=O)[C@H](Cc3c[nH]c4ccccc34)NC(=O)[C@H](CCC(=O)O)NC(=O)C(C)(C)NC(=O)[C@H]([C@@H](C)c3c[nH]c4cccc(F)c34)NC(=O)[C@@H]3C[C@H](F)CN3C(=O)CNC(=O)[C@H](Cc3ccc(C(=O)O)cc3)NC(=O)[C@H](Cc3ccncc3)NC2=O)cc1 [Example 95] (cyclo([AEF](Ac)[4Pal][Phe(4-COOH)]G[Pro(cis-4-F)][Trp(βS-Me,4-F)][Aib]EW[Aib][4Pal]Q[Dab]G[dPro(4R-Bzl(4-F))])) | 0.054
C[C@@H](c1c[nH]c2cccc(F)c12)[C@@H]1NC(=O)[C@@H]2C[C@H](F)CN2C(=O)CNC(=O)[C@H](Cc2ccc(C(=O)O)cc2)NC(=O)[C@H](CC23CC(C2)C3)NC(=O)[C@H](Cc2ccc(-c3ccc(C(=O)O)cc3)cc2)NC(=O)[C@H]2C[C@@H](Cc3ccc(F)cc3)CN2C(=O)CNC(=O)[C@H](CCN)NC(=O)[C@H](CCC(N)=O)NC(=O)[C@H](CC2CCNCC2)NC(=O)[C@@](C)(CO)NC(=O)[C@H](Cc2c[nH]c3ccccc23)NC(=O)[C@H](CO)NC(=O)C(C)(C)NC1=O [Example 172] (cyclo([Bip(4'-COOH)][Ala(1-bicyclo(1.1.1)pentyl)][Phe(4-COOH)]G[Pro(cis-4-F)][Trp(βS-Me,4-F)][Aib]SW[d(αMeS)][Ala(piperidin-4-yl)]Q[Dab]G[dPro(4R-Bzl(4-F))])) | 0.016
C[C@@H](c1c[nH]c2cccc(F)c12)[C@@H]1NC(=O)[C@@H]2C[C@H](F)CN2C(=O)CNC(=O)[C@H](Cc2ccc(C(=O)O)cc2)NC(=O)[C@H](Cc2ccncc2)NC(=O)[C@H](Cc2ccc(-c3ccc(C(=O)O)cc3)cc2)NC(=O)[C@H]2C[C@@H](Cc3ccc(F)cc3)CN2C(=O)CNC(=O)[C@H](CCN)NC(=O)[C@H](CCC(N)=O)NC(=O)[C@H](Cc2cncnc2)NC(=O)C(C)(C)NC(=O)[C@H](Cc2c[nH]c3ccccc23)NC(=O)[C@H](CCC(=O)O)NC(=O)[C@](C)(CCCCN)NC1=O [Example 66] (cyclo([Bip(4'-COOH)][4Pal][Phe(4-COOH)]G[Pro(cis-4-F)][Trp(βS-Me,4-F)][αMeK]EW[Aib][Ala(pyrimidin-5-yl)]Q[Dab]G[dPro(4R-Bzl(4-F))])) | 0.028
C[C@@H](c1c[nH]c2cccc(F)c12)[C@@H]1NC(=O)[C@@H]2C[C@H](F)CN2C(=O)CNC(=O)[C@H](Cc2ccc(C(=O)O)cc2)NC(=O)[C@H](CC23CC(C2)C3)NC(=O)[C@H](Cc2ccc(-c3ccc(C(=O)O)cc3)cc2)NC(=O)[C@H]2C[C@@H](Cc3ccc(F)cc3)CN2C(=O)CNC(=O)[C@H](CCN)NC(=O)[C@H](CCC(N)=O)NC(=O)[C@H](CN2CCOCC2)NC(=O)C(C)(C)NC(=O)[C@H](Cc2c[nH]c3ccccc23)NC(=O)[C@H](CO)NC(=O)C(C)(C)NC1=O [Example 167] (cyclo([Bip(4'-COOH)][Ala(1-bicyclo(1.1.1)pentyl)][Phe(4-COOH)]G[Pro(cis-4-F)][Trp(βS-Me,4-F)][Aib]SW[Aib][Ala(morpholin-4-yl)]Q[Dab]G[dPro(4R-Bzl(4-F))])) | 0.013
C[C@@H](c1c[nH]c2cccc(F)c12)[C@@H]1NC(=O)[C@@H]2C[C@H](F)CN2C(=O)CNC(=O)[C@H](Cc2ccc(C(=O)O)cc2)NC(=O)[C@H](CC23CC(C2)C3)NC(=O)[C@H](Cc2ccc(-c3ccc(C(=O)O)cc3)cc2)NC(=O)[C@H]2C[C@@H](Cc3ccncc3)CN2C(=O)CNC(=O)[C@H](CCN)NC(=O)[C@H](CCC(N)=O)NC(=O)[C@H](CC2CCOCC2)NC(=O)[C@@](C)(CO)NC(=O)[C@H](Cc2c[nH]c3ccccc23)NC(=O)[C@H](CO)NC(=O)C(C)(C)NC1=O [Example 204] (cyclo([Bip(4'-COOH)][Ala(1-bicyclo(1.1.1)pentyl)][Phe(4-COOH)]G[Pro(cis-4-F)][Trp(βS-Me,4-F)][Aib]SW[d(αMeS)][Ala(4-THP)]Q[Dab]G[dPro(4R-(4-pyridylmethyl))])) | 0.017
C[C@@H](c1c[nH]c2cccc(F)c12)[C@@H]1NC(=O)[C@@H]2C[C@H](O)CN2C(=O)CNC(=O)[C@H](Cc2ccc(C(=O)O)cc2)NC(=O)[C@H](Cc2ccncc2)NC(=O)[C@H](Cc2ccc(-c3ccc(C(=O)O)cc3)cc2)NC(=O)[C@H]2C[C@@H](Cc3ccncc3)CN2C(=O)CNC(=O)[C@H](CO)NC(=O)[C@H](CCC(N)=O)NC(=O)[C@H](CC2CCOCC2)NC(=O)[C@](C)(CC(=O)O)NC(=O)[C@H](Cc2c[nH]c3ccccc23)NC(=O)[C@H](CO)NC(=O)C(C)(C)NC1=O [Example 199] (cyclo([Bip(4'-COOH)][4Pal][Phe(4-COOH)]G[cisHyp][Trp(βS-Me,4-F)][Aib]SW[αMeD][Ala(4-THP)]QSG[dPro(4R-(4-pyridylmethyl))])) | 0.032
C[C@@H](c1c[nH]c2cccc(F)c12)[C@@H]1NC(=O)[C@@H]2C[C@H](F)CN2C(=O)CNC(=O)[C@H](Cc2ccc(C(=O)O)cc2)NC(=O)[C@H](CC23CC(C2)C3)NC(=O)[C@H](Cc2ccc(-c3ccc(C(=O)O)cc3)cc2)NC(=O)[C@H]2C[C@@H](Cc3ccncc3)CN2C(=O)CNC(=O)[C@H](CCN)NC(=O)[C@H](CCC(N)=O)NC(=O)[C@H](CN)NC(=O)C(C)(C)NC(=O)[C@H](Cc2c[nH]c3ccccc23)NC(=O)[C@H](CCC(=O)O)NC(=O)C(C)(C)NC1=O [Example 93] (cyclo([Bip(4'-COOH)][Ala(1-bicyclo(1.1.1)pentyl)][Phe(4-COOH)]G[Pro(cis-4-F)][Trp(βS-Me,4-F)][Aib]EW[Aib][Dap]Q[Dab]G[dPro(4R-(4-pyridylmethyl))])) | 0.059

Results, then the molecule that gave them:

IC50 [nM] | Compound
0.023 | C[C@H](O)[C@@H]1NC(=O)C(C)(C)NC(=O)[C@H]([C@@H](C)c2c[nH]c3cccc(F)c23)NC(=O)[C@@H]2C[C@H](F)CN2C(=O)CNC(=O)[C@H](Cc2ccc(C(=O)O)cc2)NC(=O)[C@H](Cc2ccncc2)NC(=O)[C@H](Cc2ccc(-c3ccc(C(=O)O)cc3)cc2)NC(=O)[C@H]2C[C@@H](Cc3ccncc3)CN2C(=O)CNC(=O)[C@H](CCN)NC(=O)[C@H](CCC(N)=O)NC(=O)[C@H]([C@H](C)O)NC(=O)[C@@](C)(CO)NC(=O)[C@H](Cc2c[nH]c3ccccc23)NC1=O [Example 352] (cyclo([Bip(4'-COOH)][4Pal][Phe(4-COOH)]G[Pro(cis-4-F)][Trp(βS-Me,4-F)][Aib][aThr]W[d(αMeS)][aThr]Q[Dab]G[dPro(4R-(4-pyridylmethyl))]))
0.013 | C[C@H](O)[C@@H]1NC(=O)[C@@](C)(CC(=O)O)NC(=O)[C@H](Cc2c[nH]c3ccccc23)NC(=O)[C@H](CO)NC(=O)C(C)(C)NC(=O)[C@H]([C@@H](C)c2c[nH]c3cccc(Cl)c23)NC(=O)[C@@H]2C[C@H](F)CN2C(=O)CNC(=O)[C@H](Cc2ccc(C(=O)O)cc2)NC(=O)[C@H](Cc2ccncc2)NC(=O)[C@H](Cc2ccc(-c3ccc(C(=O)O)cc3)cc2)NC(=O)[C@H]2C[C@@H](Cc3ccncc3)CN2C(=O)CNC(=O)[C@H](CCN)NC(=O)[C@H](CCC(N)=O)NC1=O [Example 358] (cyclo([Bip(4'-COOH)][4Pal][Phe(4-COOH)]G[Pro(cis-4-F)][Trp(4-Cl)(βS-Me)][Aib]SW[d(αMeD)][aThr]Q[Dab]G[dPro(4R-(4-pyridylmethyl))]))
0.013 | C[C@H](O)[C@@H]1NC(=O)[C@](C)(CC(=O)O)NC(=O)[C@H](Cc2c[nH]c3ccccc23)NC(=O)[C@H](CO)NC(=O)C(C)(C)NC(=O)[C@H]([C@@H](C)c2c[nH]c3cccc(F)c23)NC(=O)[C@@H]2C[C@H](F)CN2C(=O)CNC(=O)[C@H](Cc2ccc(C(=O)O)cc2)NC(=O)[C@H](CC23CC(C2)C3)NC(=O)[C@H](Cc2ccc(-c3ccc(C(=O)O)cc3)cc2)NC(=O)[C@H]2C[C@@H](Cc3ccncc3)CN2C(=O)CNC(=O)[C@H](CCN)NC(=O)[C@H](CCC(N)=O)NC1=O [Example 202] (cyclo([Bip(4'-COOH)][Ala(1-bicyclo(1.1.1)pentyl)][Phe(4-COOH)]G[Pro(cis-4-F)][Trp(βS-Me,4-F)][Aib]SW[αMeD][aThr]Q[Dab]G[dPro(4R-(4-pyridylmethyl))]))
0.022 | C[C@H](O)[C@@H]1NC(=O)[C@@](C)(CC(=O)O)NC(=O)[C@H](Cc2c[nH]c3ccccc23)NC(=O)[C@H](CO)NC(=O)C(C)(C)NC(=O)[C@H]([C@@H](C)c2c[nH]c3cccc(F)c23)NC(=O)[C@@H]2C[C@H](F)CN2C(=O)CNC(=O)[C@H](Cc2ccc(C(=O)O)cc2)NC(=O)[C@H](Cc2ccncc2)NC(=O)[C@H](Cc2ccc(-c3ccc(C(=O)O)cc3)cc2)NC(=O)[C@H]2C[C@@H](Cc3ccncc3)CN2C(=O)CN(C)C(=O)[C@H](CCN)NC(=O)[C@H](CCC(N)=O)NC1=O [Example 337] (cyclo([Bip(4'-COOH)][4Pal][Phe(4-COOH)]G[Pro(cis-4-F)][Trp(βS-Me,4-F)][Aib]SW[d(αMeD)][aThr]Q[Dab][Sar][dPro(4R-(4-pyridylmethyl))]))
